Key:
[1] = The drug is tested on Clostridium spiroforme strain: DSM1552 for biotransformation. The drug concentrations were measured before and after a 12-h incubation by liquid-chromatography-coupled mass spectrometry (LC–MS); conditions: thomasclavelia spiroformis, 2 µM
[2] = biological target: T1, Lipolytic enzyme, G-D-S-L family (Bacteroides thetaiotaomicron, UniProt Q8A0C5); experiment: The drug is tested on Bacteroides thetaiotaomicron strain: VPI-5482 for biotransformation. The drug concentrations were measured before and after a 12-h incubation by liquid-chromatography-coupled mass spectrometry (LC–MS); format: ADME; set-up: dose 2 uM; conditions: 2 µM
T1 sequence (Q8A0C5 whole entry): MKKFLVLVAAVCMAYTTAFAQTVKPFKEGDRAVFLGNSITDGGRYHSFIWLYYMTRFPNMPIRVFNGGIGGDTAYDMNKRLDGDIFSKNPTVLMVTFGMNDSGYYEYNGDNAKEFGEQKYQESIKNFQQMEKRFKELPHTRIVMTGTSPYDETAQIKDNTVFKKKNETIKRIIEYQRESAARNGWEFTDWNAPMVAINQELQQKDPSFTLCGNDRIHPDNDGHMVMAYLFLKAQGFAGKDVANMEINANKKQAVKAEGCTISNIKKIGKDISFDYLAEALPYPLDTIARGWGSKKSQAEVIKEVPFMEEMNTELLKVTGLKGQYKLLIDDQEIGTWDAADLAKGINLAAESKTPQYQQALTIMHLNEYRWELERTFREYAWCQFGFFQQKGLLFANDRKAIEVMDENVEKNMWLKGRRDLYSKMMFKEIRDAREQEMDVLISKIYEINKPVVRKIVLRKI

[3] = biological target: T2, Acyltransferase 3 domain-containing protein (Phocaeicola dorei, UniProt B6W2J3); experiment: (§1) The drug is tested on Bacteroides dorei strain: DSM17855 for biotransformation. The drug concentrations were measured before and after a 12-h incubation by liquid-chromatography-coupled mass spectrometry (LC–MS); format: ADME; set-up: dose 2 uM; conditions: 2 µM
T2 sequence (B6W2J3 whole entry): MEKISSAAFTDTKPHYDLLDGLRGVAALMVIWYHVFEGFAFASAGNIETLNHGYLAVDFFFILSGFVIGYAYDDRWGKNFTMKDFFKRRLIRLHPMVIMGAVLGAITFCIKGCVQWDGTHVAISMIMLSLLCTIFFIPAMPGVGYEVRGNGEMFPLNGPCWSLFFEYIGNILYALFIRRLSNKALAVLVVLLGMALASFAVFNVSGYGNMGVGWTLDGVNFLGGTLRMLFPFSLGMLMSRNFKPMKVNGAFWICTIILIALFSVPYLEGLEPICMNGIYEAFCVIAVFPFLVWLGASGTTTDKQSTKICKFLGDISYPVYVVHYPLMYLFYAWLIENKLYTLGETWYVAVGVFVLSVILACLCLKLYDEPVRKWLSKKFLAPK

[4] = biological target: T3, Steroid 5-alpha reductase C-terminal domain-containing protein (Phocaeicola dorei, UniProt B6W0N3); experiment: as §1; format: ADME; set-up: dose 2 uM; conditions: 2 µM
T3 sequence (B6W0N3 whole entry): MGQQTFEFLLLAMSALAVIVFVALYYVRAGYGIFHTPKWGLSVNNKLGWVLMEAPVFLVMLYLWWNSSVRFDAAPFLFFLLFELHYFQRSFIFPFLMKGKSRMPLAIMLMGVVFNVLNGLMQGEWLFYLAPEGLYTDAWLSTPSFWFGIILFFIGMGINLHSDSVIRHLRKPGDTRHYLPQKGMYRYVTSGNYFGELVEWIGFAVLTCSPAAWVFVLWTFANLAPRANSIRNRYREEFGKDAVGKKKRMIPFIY

Diguanylate cyclase = biological target: T4, Diguanylate cyclase (Collinsella aerofaciens, UniProt A4EB91); experiment: (§2) The drug is tested on Collinsella aerofaciens strain: ATCC25986 for biotransformation. The drug concentrations were measured before and after a 12-h incubation by liquid-chromatography-coupled mass spectrometry (LC–MS); format: ADME; set-up: dose 2 uM; conditions: 2 µM
T4 sequence (A4EB91 whole entry): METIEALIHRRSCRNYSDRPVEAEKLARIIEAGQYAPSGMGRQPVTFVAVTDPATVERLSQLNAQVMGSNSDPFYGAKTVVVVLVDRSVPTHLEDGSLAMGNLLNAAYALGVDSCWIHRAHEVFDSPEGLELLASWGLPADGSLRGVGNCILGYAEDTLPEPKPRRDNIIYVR

GDSL-like protein = biological target: T5, GDSL-like protein (Collinsella aerofaciens, UniProt A4E7D0); experiment: as §2; format: ADME; set-up: dose 2 uM; conditions: 2 µM
T5 sequence (A4E7D0 whole entry): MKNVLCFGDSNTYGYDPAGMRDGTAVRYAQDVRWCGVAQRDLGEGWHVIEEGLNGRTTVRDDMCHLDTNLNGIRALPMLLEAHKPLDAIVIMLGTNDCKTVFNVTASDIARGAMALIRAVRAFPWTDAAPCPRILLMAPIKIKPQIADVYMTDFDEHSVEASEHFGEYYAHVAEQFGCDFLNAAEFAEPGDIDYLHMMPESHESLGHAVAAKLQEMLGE

[5] = biological target: T6, Pyridine nucleotide-disulfide oxidoreductase (Collinsella aerofaciens, UniProt A4EBM5); experiment: as §2; format: ADME; set-up: dose 2 uM; conditions: 2 µM
T6 sequence (A4EBM5 whole entry): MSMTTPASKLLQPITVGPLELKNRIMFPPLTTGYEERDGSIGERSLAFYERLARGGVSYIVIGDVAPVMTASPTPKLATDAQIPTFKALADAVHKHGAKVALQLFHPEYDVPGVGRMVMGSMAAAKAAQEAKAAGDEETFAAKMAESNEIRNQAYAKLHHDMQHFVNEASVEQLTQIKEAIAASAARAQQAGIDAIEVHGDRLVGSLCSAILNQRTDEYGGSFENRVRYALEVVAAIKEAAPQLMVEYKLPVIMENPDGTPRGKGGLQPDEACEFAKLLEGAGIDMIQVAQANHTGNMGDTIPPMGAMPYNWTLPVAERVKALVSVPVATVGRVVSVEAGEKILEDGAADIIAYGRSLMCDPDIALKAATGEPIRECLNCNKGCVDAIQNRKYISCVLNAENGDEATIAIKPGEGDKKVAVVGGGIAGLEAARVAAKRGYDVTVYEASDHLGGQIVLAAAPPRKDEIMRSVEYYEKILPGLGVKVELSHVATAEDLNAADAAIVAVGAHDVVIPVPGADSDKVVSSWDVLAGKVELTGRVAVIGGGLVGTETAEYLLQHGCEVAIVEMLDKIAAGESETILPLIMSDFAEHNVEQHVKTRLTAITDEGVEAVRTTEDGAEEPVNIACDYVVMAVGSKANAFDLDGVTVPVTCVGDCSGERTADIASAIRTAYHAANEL

Flavodoxin = biological target: T7, Flavodoxin (Collinsella aerofaciens, UniProt A4ED08); experiment: as §2; format: ADME; set-up: dose 2 uM; conditions: 2 µM
T7 sequence (A4ED08 whole entry): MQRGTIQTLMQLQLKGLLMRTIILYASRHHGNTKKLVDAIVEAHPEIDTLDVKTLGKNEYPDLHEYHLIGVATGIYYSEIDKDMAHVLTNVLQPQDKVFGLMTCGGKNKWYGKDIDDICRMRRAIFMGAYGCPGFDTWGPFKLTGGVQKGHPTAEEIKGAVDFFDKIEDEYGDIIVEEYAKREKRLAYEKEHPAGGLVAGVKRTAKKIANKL

Compound: CCCC(=O)Nc1ccc(OCC(O)CNC(C)C)c(C(C)=O)c1 (stereo unspecified) [ACEBUTOLOL]
- Bacterial Biotransformation [1]: Compound NOT metabolized

Compound: CC(C)NCC(O)COc1ccc(CC(N)=O)cc1 (stereo unspecified) [ATENOLOL]
- Bacterial Biotransformation [1]: Compound NOT metabolized

Compound: CC(C)NCC(O)COc1ccc(CCOCC2CC2)cc1 (stereo unspecified) [BETAXOLOL]
- Bacterial Biotransformation [1]: Compound NOT metabolized

Compound: CC(=O)Oc1ccc(C(c2ccc(OC(C)=O)cc2)c2ccccn2)cc1 [BISACODYL]
- Bacterial Biotransformation [2]: Compound metabolized
- Bacterial Biotransformation [3]: Compound NOT metabolized
- Bacterial Biotransformation [4]: Compound NOT metabolized
- Bacterial Biotransformation (Diguanylate cyclase): Compound NOT metabolized
- Bacterial Biotransformation (GDSL-like protein): Compound metabolized
- Bacterial Biotransformation [5]: Compound NOT metabolized
- Bacterial Biotransformation (Flavodoxin): Compound NOT metabolized

Compound: CC(NC(C)(C)C)C(=O)c1cccc(Cl)c1 (stereo unspecified) [BUPROPION]
- Bacterial Biotransformation [1]: Compound NOT metabolized

Compound: COc1ccccc1OCCNCC(O)COc1cccc2[nH]c3ccccc3c12 (stereo unspecified) [CARVEDILOL]
- Bacterial Biotransformation [1]: Compound metabolized

Compound: CN/C(=N/CCSCc1nc[nH]c1C)NC#N [CIMETIDINE]
- Bacterial Biotransformation [1]: Compound NOT metabolized

Compound: Clc1cccc(Cl)c1N=C1NCCN1 [CLONIDINE]
- Bacterial Biotransformation [1]: Compound NOT metabolized

Compound: COC(=O)[C@H](c1ccccc1Cl)N1CCc2sccc2C1.O=S(=O)(O)O [CLOPIDOGREL BISULFATE]
- Bacterial Biotransformation [1]: Compound NOT metabolized

Compound: CN1CCN(C2=Nc3cc(Cl)ccc3Nc3ccccc32)CC1 [CLOZAPINE]
- Bacterial Biotransformation [1]: Compound NOT metabolized

Compound: CN(C)CCC=C1c2ccccc2C=Cc2ccccc21 [CYCLOBENZAPRINE]
- Bacterial Biotransformation [1]: Compound NOT metabolized

Compound: O=P1(N(CCCl)CCCl)NCCCO1 (stereo unspecified) [CYCLOPHOSPHAMIDE ANHYDROUS]
- Bacterial Biotransformation [1]: Compound NOT metabolized

Compound: C#C[C@]1(O)CC[C@H]2[C@@H]3CCC4=Cc5oncc5C[C@]4(C)[C@H]3CC[C@@]21C [DANAZOL]
- Bacterial Biotransformation [2]: Compound NOT metabolized
- Bacterial Biotransformation [3]: Compound NOT metabolized
- Bacterial Biotransformation [4]: Compound NOT metabolized
- Bacterial Biotransformation (Diguanylate cyclase): Compound NOT metabolized
- Bacterial Biotransformation (GDSL-like protein): Compound NOT metabolized
- Bacterial Biotransformation [5]: Compound NOT metabolized
- Bacterial Biotransformation (Flavodoxin): Compound NOT metabolized

Compound: CC(=O)OCC(=O)[C@@]12N=C(C)O[C@@H]1C[C@H]1[C@@H]3CCC4=CC(=O)C=C[C@]4(C)[C@H]3[C@@H](O)C[C@@]12C [DEFLAZACORT]
- Bacterial Biotransformation [2]: Compound metabolized
- Bacterial Biotransformation [3]: Compound NOT metabolized
- Bacterial Biotransformation [4]: Compound NOT metabolized
- Bacterial Biotransformation (Diguanylate cyclase): Compound NOT metabolized
- Bacterial Biotransformation (GDSL-like protein): Compound NOT metabolized
- Bacterial Biotransformation [5]: Compound NOT metabolized
- Bacterial Biotransformation (Flavodoxin): Compound NOT metabolized

Compound: CC(=O)Nc1ccc(OC(C)=O)cc1 [DIACETAMATE]
- Bacterial Biotransformation [2]: Compound metabolized
- Bacterial Biotransformation [3]: Compound NOT metabolized
- Bacterial Biotransformation [4]: Compound NOT metabolized
- Bacterial Biotransformation (Diguanylate cyclase): Compound NOT metabolized
- Bacterial Biotransformation (GDSL-like protein): Compound metabolized
- Bacterial Biotransformation [5]: Compound NOT metabolized
- Bacterial Biotransformation (Flavodoxin): Compound NOT metabolized

Compound: CCN(CC)C(=O)/C(C#N)=C/c1cc(O)c(O)c([N+](=O)[O-])c1 [ENTACAPONE]
- Bacterial Biotransformation [2]: Compound NOT metabolized
- Bacterial Biotransformation [3]: Compound NOT metabolized
- Bacterial Biotransformation [4]: Compound NOT metabolized
- Bacterial Biotransformation (Diguanylate cyclase): Compound metabolized
- Bacterial Biotransformation (GDSL-like protein): Compound NOT metabolized
- Bacterial Biotransformation [5]: Compound NOT metabolized
- Bacterial Biotransformation (Flavodoxin): Compound NOT metabolized

Compound: c1ccc([C@H]2CN3CCSC3=N2)cc1 [LEVAMISOLE]
- Bacterial Biotransformation [1]: Compound NOT metabolized

Compound: CCOC(=O)C1=C(C)NC(C)=C(C(=O)OC)C1c1cccc([N+](=O)[O-])c1 (stereo unspecified) [NITRENDIPINE]
- Bacterial Biotransformation [2]: Compound NOT metabolized
- Bacterial Biotransformation [3]: Compound NOT metabolized
- Bacterial Biotransformation [4]: Compound NOT metabolized
- Bacterial Biotransformation (Diguanylate cyclase): Compound metabolized
- Bacterial Biotransformation (GDSL-like protein): Compound NOT metabolized
- Bacterial Biotransformation [5]: Compound NOT metabolized
- Bacterial Biotransformation (Flavodoxin): Compound NOT metabolized

Compound: CCOc1cc(CC(=O)N[C@@H](CC(C)C)c2ccccc2N2CCCCC2)ccc1C(=O)O [REPAGLINIDE]
- Bacterial Biotransformation [1]: Compound NOT metabolized

Compound: O=C(O)c1cc(/N=N/c2ccc(S(=O)(=O)Nc3ccccn3)cc2)ccc1O [SULFASALAZINE]
- Bacterial Biotransformation [3]: Compound NOT metabolized
- Bacterial Biotransformation [4]: Compound NOT metabolized
- Bacterial Biotransformation (Diguanylate cyclase): Compound NOT metabolized
- Bacterial Biotransformation [5]: Compound NOT metabolized
- Bacterial Biotransformation (Flavodoxin): Compound NOT metabolized

Compound: CCS(=O)(=O)CCn1c([N+](=O)[O-])cnc1C [TINIDAZOLE]
- Bacterial Biotransformation [2]: Compound NOT metabolized
- Bacterial Biotransformation [3]: Compound NOT metabolized
- Bacterial Biotransformation [4]: Compound NOT metabolized
- Bacterial Biotransformation (GDSL-like protein): Compound NOT metabolized
- Bacterial Biotransformation [5]: Compound metabolized
- Bacterial Biotransformation (Flavodoxin): Compound NOT metabolized

Source: ChEMBL document CHEMBL5303573, “Mapping human microbiome drug metabolism by gut bacteria and their genes” (Nature, 2019)
